Assay results as given in ChEMBL document CHEMBL5120927, “LEGO-Lipophosphonoxins: A Novel Approach in Designing Membrane Targeting Antimicrobials” (J Med Chem, 2022).

Tested on: Enterococcus faecalis
Test: Antibacterial activity against Enterococcus faecalis ATCC 29212 = CCM 4224 assessed as inhibition of bacterial growth incubated for 24 hrs by microdilution assay
Format: functional
Conditions: not given

SMILES | MIC [µg/mL]
CCCCCCCCCCCCOP(=O)(CCN(CCCN)CCCN)OCCc1c[nH]c2ccccc12.Cl.Cl.Cl.Cl (stereo unspecified) | 4
CCCCCOP(=O)(CCN(CCCN)CCCN)OCCCCCCCCCCCCCCOP(=O)(CCN(CCCN)CCCN)OCCCCC.Cl.Cl.Cl.Cl.Cl.Cl (stereo unspecified) | 1
CC(C)COP(=O)(CCN(CCCN)CCCN)OCCCCCCCCCCCCCCOP(=O)(CCN(CCCN)CCCN)OCC(C)C.Cl.Cl.Cl.Cl.Cl.Cl (stereo unspecified) | 4
CCCCCCCCOP(=O)(CCN(CCCN)CCCN)OCCCCCCCCCCCCOP(=O)(CCN(CCCN)CCCN)OCCCCCCCC.Cl.Cl.Cl.Cl.Cl.Cl (stereo unspecified) | 1
CCCCCCCCCOP(=O)(CCN(CCCN)CCCN)OCCOCc1ccccc1.Cl.Cl.Cl (stereo unspecified) | 32
CCCCCCCCCOP(=O)(CCN(CCCN)CCCN)OCCc1cccc2ccccc12.Cl.Cl.Cl (stereo unspecified) | 2
CCCCOP(=O)(CCN(CCCN)CCCN)OCCCCCCCCCCCCCCOP(=O)(CCN(CCCN)CCCN)OCCCC.Cl.Cl.Cl.Cl.Cl.Cl (stereo unspecified) | 4

Tested on: not listed separately
Test: Gradient chromatographic hydrophobicity index of the compound at pH 3.7 by HPLC analysis
Format: ADME
Conditions: not given

SMILES | CHI
CCCCCOP(=O)(CCN(CCCN)CCCN)OCCCCCCCCCCCCCCOP(=O)(CCN(CCCN)CCCN)OCCCCC.Cl.Cl.Cl.Cl.Cl.Cl (stereo unspecified) | 38.1
CC(C)COP(=O)(CCN(CCCN)CCCN)OCCCCCCCCCCCCCCOP(=O)(CCN(CCCN)CCCN)OCC(C)C.Cl.Cl.Cl.Cl.Cl.Cl (stereo unspecified) | 27.3
CCCCCCCCOP(=O)(CCN(CCCN)CCCN)OCCCCCCCCCCCCOP(=O)(CCN(CCCN)CCCN)OCCCCCCCC.Cl.Cl.Cl.Cl.Cl.Cl (stereo unspecified) | 432
CCCCOP(=O)(CCN(CCCN)CCCN)OCCCCCCCCCCCCCCOP(=O)(CCN(CCCN)CCCN)OCCCC.Cl.Cl.Cl.Cl.Cl.Cl (stereo unspecified) | 35.2

Tested on: Escherichia coli
Test: Antibacterial activity against Escherichia coli ATCC 25922 = CCM 3954 assessed as inhibition of bacterial growth incubated for 24 hrs by microdilution assay
Format: functional
Conditions: not given

SMILES | MIC [µg/mL]
CCCCCCCCCCCCOP(=O)(CCN(CCCN)CCCN)OCCc1c[nH]c2ccccc12.Cl.Cl.Cl.Cl (stereo unspecified) | 4
CCCCCOP(=O)(CCN(CCCN)CCCN)OCCCCCCCCCCCCCCOP(=O)(CCN(CCCN)CCCN)OCCCCC.Cl.Cl.Cl.Cl.Cl.Cl (stereo unspecified) | 2
CC(C)COP(=O)(CCN(CCCN)CCCN)OCCCCCCCCCCCCCCOP(=O)(CCN(CCCN)CCCN)OCC(C)C.Cl.Cl.Cl.Cl.Cl.Cl (stereo unspecified) | 16
CCCCCCCCOP(=O)(CCN(CCCN)CCCN)OCCCCCCCCCCCCOP(=O)(CCN(CCCN)CCCN)OCCCCCCCC.Cl.Cl.Cl.Cl.Cl.Cl (stereo unspecified) | 1
CCCCCCCCCOP(=O)(CCN(CCCN)CCCN)OCCOCc1ccccc1.Cl.Cl.Cl (stereo unspecified) | 64
CCCCCCCCCOP(=O)(CCN(CCCN)CCCN)OCCc1cccc2ccccc12.Cl.Cl.Cl (stereo unspecified) | 4
CCCCOP(=O)(CCN(CCCN)CCCN)OCCCCCCCCCCCCCCOP(=O)(CCN(CCCN)CCCN)OCCCC.Cl.Cl.Cl.Cl.Cl.Cl (stereo unspecified) | 16

Tested on: Staphylococcus aureus
Test: Antibacterial activity against Staphylococcus aureus ATCC 29213 = CCM 4223 assessed as inhibition of bacterial growth incubated for 24 hrs by microdilution assay
Format: functional
Conditions: not given

SMILES | MIC [µg/mL]
CCCCCCCCCCCCOP(=O)(CCN(CCCN)CCCN)OCCc1c[nH]c2ccccc12.Cl.Cl.Cl.Cl (stereo unspecified) | 2
CCCCCCCCCOP(=O)(CCN(CCCN)CCCN)OCCOCc1ccccc1.Cl.Cl.Cl (stereo unspecified) | 32
CCCCCCCCCOP(=O)(CCN(CCCN)CCCN)OCCc1cccc2ccccc12.Cl.Cl.Cl (stereo unspecified) | 2

Tested on: Pseudomonas aeruginosa
Test: Antibacterial activity against Pseudomonas aeruginosa ATCC 27853 = CCM 3955 assessed as inhibition of bacterial growth incubated for 24 hrs by microdilution assay
Format: functional
Conditions: not given

SMILES | MIC [µg/mL]
CCCCCCCCCCCCOP(=O)(CCN(CCCN)CCCN)OCCc1c[nH]c2ccccc12.Cl.Cl.Cl.Cl (stereo unspecified) | 8
CCCCCOP(=O)(CCN(CCCN)CCCN)OCCCCCCCCCCCCCCOP(=O)(CCN(CCCN)CCCN)OCCCCC.Cl.Cl.Cl.Cl.Cl.Cl (stereo unspecified) | 4
CC(C)COP(=O)(CCN(CCCN)CCCN)OCCCCCCCCCCCCCCOP(=O)(CCN(CCCN)CCCN)OCC(C)C.Cl.Cl.Cl.Cl.Cl.Cl (stereo unspecified) | 4
CCCCCCCCOP(=O)(CCN(CCCN)CCCN)OCCCCCCCCCCCCOP(=O)(CCN(CCCN)CCCN)OCCCCCCCC.Cl.Cl.Cl.Cl.Cl.Cl (stereo unspecified) | 2
CCCCCCCCCOP(=O)(CCN(CCCN)CCCN)OCCOCc1ccccc1.Cl.Cl.Cl (stereo unspecified) | 64
CCCCCCCCCOP(=O)(CCN(CCCN)CCCN)OCCc1cccc2ccccc12.Cl.Cl.Cl (stereo unspecified) | 4
CCCCOP(=O)(CCN(CCCN)CCCN)OCCCCCCCCCCCCCCOP(=O)(CCN(CCCN)CCCN)OCCCC.Cl.Cl.Cl.Cl.Cl.Cl (stereo unspecified) | 4

Tested on: Escherichia coli
Test: Antibacterial activity against Escherichia coli ATCC 25922 = CCM 3954 assessed as inhibition of bacterial growth incubated for 24 hrs in presence of BSA by microdilution assay
Format: functional
Conditions: not given

SMILES | MIC [µg/mL]
CCCCCCCCCOP(=O)(CCN(CCCN)CCCN)OCCOCc1ccccc1.Cl.Cl.Cl (stereo unspecified) | > 128
CCCCCCCCCOP(=O)(CCN(CCCN)CCCN)OCCc1cccc2ccccc12.Cl.Cl.Cl (stereo unspecified) | 64

Tested on: Staphylococcus epidermidis
Test: Antibacterial activity against Staphylococcus epidermidis CCM 7221 assessed as inhibition of bacterial growth incubated for 24 hrs by microdilution assay
Format: functional
Conditions: not given

SMILES | MIC [µg/mL]
CCCCCOP(=O)(CCN(CCCN)CCCN)OCCCCCCCCCCCCCCOP(=O)(CCN(CCCN)CCCN)OCCCCC.Cl.Cl.Cl.Cl.Cl.Cl (stereo unspecified) | 0.5
CC(C)COP(=O)(CCN(CCCN)CCCN)OCCCCCCCCCCCCCCOP(=O)(CCN(CCCN)CCCN)OCC(C)C.Cl.Cl.Cl.Cl.Cl.Cl (stereo unspecified) | 0.5
CCCCCCCCOP(=O)(CCN(CCCN)CCCN)OCCCCCCCCCCCCOP(=O)(CCN(CCCN)CCCN)OCCCCCCCC.Cl.Cl.Cl.Cl.Cl.Cl (stereo unspecified) | 0.5
CCCCOP(=O)(CCN(CCCN)CCCN)OCCCCCCCCCCCCCCOP(=O)(CCN(CCCN)CCCN)OCCCC.Cl.Cl.Cl.Cl.Cl.Cl (stereo unspecified) | 0.5

Tested on: Staphylococcus aureus
Test: Antibacterial activity against methicillin resistant Staphylococcus aureus 4591/A assessed as reduction in microbial growth incubated for 24 hrs by microdilution assay
Format: functional
Conditions: not given

SMILES | MIC [µg/mL]
CCCCCOP(=O)(CCN(CCCN)CCCN)OCCCCCCCCCCCCCCOP(=O)(CCN(CCCN)CCCN)OCCCCC.Cl.Cl.Cl.Cl.Cl.Cl (stereo unspecified) | 1
CC(C)COP(=O)(CCN(CCCN)CCCN)OCCCCCCCCCCCCCCOP(=O)(CCN(CCCN)CCCN)OCC(C)C.Cl.Cl.Cl.Cl.Cl.Cl (stereo unspecified) | 4
CCCCCCCCOP(=O)(CCN(CCCN)CCCN)OCCCCCCCCCCCCOP(=O)(CCN(CCCN)CCCN)OCCCCCCCC.Cl.Cl.Cl.Cl.Cl.Cl (stereo unspecified) | 1
CCCCOP(=O)(CCN(CCCN)CCCN)OCCCCCCCCCCCCCCOP(=O)(CCN(CCCN)CCCN)OCCCC.Cl.Cl.Cl.Cl.Cl.Cl (stereo unspecified) | 2

Tested on: Enterococcus faecium
Test: Antibacterial activity against vancomycin resistant Enterococcus faecium 419/ANA assessed as reduction in microbial growth incubated for 24 hrs by microdilution assay
Format: functional
Conditions: not given

SMILES | MIC [µg/mL]
CCCCCOP(=O)(CCN(CCCN)CCCN)OCCCCCCCCCCCCCCOP(=O)(CCN(CCCN)CCCN)OCCCCC.Cl.Cl.Cl.Cl.Cl.Cl (stereo unspecified) | 2
CC(C)COP(=O)(CCN(CCCN)CCCN)OCCCCCCCCCCCCCCOP(=O)(CCN(CCCN)CCCN)OCC(C)C.Cl.Cl.Cl.Cl.Cl.Cl (stereo unspecified) | 16
CCCCCCCCOP(=O)(CCN(CCCN)CCCN)OCCCCCCCCCCCCOP(=O)(CCN(CCCN)CCCN)OCCCCCCCC.Cl.Cl.Cl.Cl.Cl.Cl (stereo unspecified) | 1
CCCCOP(=O)(CCN(CCCN)CCCN)OCCCCCCCCCCCCCCOP(=O)(CCN(CCCN)CCCN)OCCCC.Cl.Cl.Cl.Cl.Cl.Cl (stereo unspecified) | 16

Tested on: Staphylococcus aureus
Test: Antibacterial activity against Staphylococcus aureus ATCC 29213 = CCM 4223 assessed as inhibition of bacterial growth incubated for 24 hrs in presence of BSA by microdilution assay
Format: functional
Conditions: not given

SMILES | MIC [µg/mL]
CCCCCCCCCOP(=O)(CCN(CCCN)CCCN)OCCOCc1ccccc1.Cl.Cl.Cl (stereo unspecified) | > 128
CCCCCCCCCOP(=O)(CCN(CCCN)CCCN)OCCc1cccc2ccccc12.Cl.Cl.Cl (stereo unspecified) | 64

Tested on: not listed separately
Test: Hemolytic activity in human RBC assessed as haemoglobin release measured after 3 hr
Format: toxicity, cell-based, Erythrocyte
Conditions: red blood cells (erythrocytes)

SMILES | HC50 at 3 h [µg/mL]
CCCCCCCCCCCCOP(=O)(CCN(CCCN)CCCN)OCCc1c[nH]c2ccccc12.Cl.Cl.Cl.Cl (stereo unspecified) | 12.1
CCCCCCCCCOP(=O)(CCN(CCCN)CCCN)OCCOCc1ccccc1.Cl.Cl.Cl (stereo unspecified) | 79.8
CCCCCCCCCOP(=O)(CCN(CCCN)CCCN)OCCc1cccc2ccccc12.Cl.Cl.Cl (stereo unspecified) | 12.8

Tested on: Escherichia coli
Test: Antibacterial activity against multidrug-resistant Escherichia coli CE5556 expressing CTX-M-15 assessed as reduction in microbial growth incubated for 24 hrs by microdilution assay
Format: functional
Conditions: not given

SMILES | MIC [µg/mL]
CCCCCOP(=O)(CCN(CCCN)CCCN)OCCCCCCCCCCCCCCOP(=O)(CCN(CCCN)CCCN)OCCCCC.Cl.Cl.Cl.Cl.Cl.Cl (stereo unspecified) | 2
CC(C)COP(=O)(CCN(CCCN)CCCN)OCCCCCCCCCCCCCCOP(=O)(CCN(CCCN)CCCN)OCC(C)C.Cl.Cl.Cl.Cl.Cl.Cl (stereo unspecified) | 16
CCCCCCCCOP(=O)(CCN(CCCN)CCCN)OCCCCCCCCCCCCOP(=O)(CCN(CCCN)CCCN)OCCCCCCCC.Cl.Cl.Cl.Cl.Cl.Cl (stereo unspecified) | 1
CCCCOP(=O)(CCN(CCCN)CCCN)OCCCCCCCCCCCCCCOP(=O)(CCN(CCCN)CCCN)OCCCC.Cl.Cl.Cl.Cl.Cl.Cl (stereo unspecified) | 32
